In series [1] the test system is TM cells on galectin-8 coated wells. The settings on record: cited from earlier work.
In series [2] the test system is mouse corneas. The experiment in a line: Alkali (sodium hydroxide) model of corneal fibrosis. The settings on record: vs PBS.
Experimental: C57BJ/6 mice were anesthetized by intraperiteoneal injection of a mixture of ketamine and xylazine. Corneas of the subjects were topically anesthetized by applying an eye drop of proparacain. 1.5 μl drop of 0.15M sodium hydroxide was applied for one minute to the central cornea of each subject. Each eye was immediately washed extensively in PBS, and corneal epithelium and limbal epithelium were gently removed with an ALGEBRUSH™ optical device (Storz Ophthalmic Instruments, St. Louis, Mo.). Each cornea was covered with an antibiotic ointment. […] Control subjects were injected subconjunctivally with control vehicle PBS. Corneas were visualized and analyzed for opacity, and protein markers for fibrosis were quantified as described below.
Mice were sacrificed at day 14 post surgery using a mixture of ketamine and xylazine. Mouse corneas were dissected and lysed in ice-cold lysis buffer containing 5 mM NaF, 1 mM PMSF, 1 mM DTT, 20 mM HEPES, 1 mM EDTA, 400 mM NaCl, 1 mM EGTA, 0.1% NP-40, and a protease inhibitor cocktail product (Roche). Aliquots of corneal protein (20 μg) were loaded to each lane of a gel and transferred onto a nitrocellulose membrane. Blots were probed overnight at 4° C. with either a rabbit antibody specific for α-smooth muscle actin (10,000 dilution; Abcam Inc., Cambridge, England), or with a control antibody specific for β-actin. The blots were extensively washed and were incubated with goat anti rabbit IRDye 800CW antibody (1:10,000 dilution; LI-Cor Biosciences; Lincoln Nebr.). Membranes were scanned and quantified using an Odessey imaging system (Li-Cor Biosciences).
C57BJ/6 mice were anesthetized by intraperiteoneal injection of ketamine and xylazine mixture. […]
Subjects were sacrificed on day fourteen after alkalisurgery using a mixture of ketamine and xylazine. […] The membranes were washed and incubated with goat anti rabbit IRDye 800CW antibody (1:10,000; Li-Cor Inc.), the membranes were scanned and quantified with Odessey imaging system (Li-Cor Inc.).
SMA (smooth muscle actin) is a marker of corneal fibrosis. […] Opacity of the eye was scored on day 7 and day 14. […]
For series [3], the system named is HUVEC. The experiment in a line: VEGF-A-induced endothelial cell migration (chemotaxis chamber). Type of series: cell-based, human. The settings on record: three hours. The method, then:
FIG. 13B is a bar graph showing migration distance (migration index, ordinate) of HUVEC cells treated with (abscissa) […] as in FIG. 13A. HUVECs were serum starved overnight, detached with proteolytic and collagenolytic enzyme product Accutase™ (Millipore Inc.), resuspended in 1% FBS/M199 and then added to the upper chamber of a migration testing system. […] After three hours of incubation, HUVECs that migrated to lower side of the membrane were counted.
HUVEC were incubated without serum overnight, detached with Accutase, re-suspended in 1% FBS/M199 and added in an upper chamber separated from a bottom chamber by a membrane. […] Control HUVEC were treated with neither VEGF-A nor TD139.
Data were plotted as mean±SEM and analyzed with one-way ANOVA. *P<0.05 vs control; ***P<0.001 vs control; ^###P<0.001 vs VEGF-A.

Series [4] concerns VEGFR2. In words: VEGFR2 expression in HUVEC by western blot. Type of series: cell-based, human. The settings on record: 10 μM TD139, six hours. The method, then:
Cell lysates were analyzed by electrophoresis in 4-20% SDS-PAGE gels. The gels were transferred to western blot membranes, and were probed with anti-VEGFR-2 antibody (FIG. 15 top row) or β-actin antibody (FIG. 15 bottom row).
Control HUVEC were not treated with TD139. Cell lysates were analyzed using gel electrophoresis (4-20% SDS-PAGE gels), and the membrane blots were probed with either anti-VEGFR-2 antibodies or β-actin antibodies.
For orientation: A western blot detects proteins with antibodies after separation by electrophoresis.

Series [5] has as its target recombinant galectin-3 (Homo sapiens, UniProt P17931). In words: Microtiter plate binding assay with galectin receptor-HRP conjugate, galectin-3. The settings on record: plate coated with recombinant galectin-3.
Experimental: Microtiter plate wells were coated with recombinant galectin-1 or galectin-3 (10 μg/ml, 50 μl/well), and then washed with wash solutions containing PBS and detergent. The wells were blocked with BSA, and washed with wash solution/buffer. […] Control wells included PBS only. An amount of galectin receptor-HRP conjugate (100 μL/well, 1 mg/mL) specific for either galectin-1 or galectin-3 was added to the respective wells. The wells were incubated for one hour and then washed with buffer at room temperature. The horse-radish peroxidase enzyme reaction was performed using a TMB-peroxidase substrate kit (BioRad Inc.). The reaction was stopped after one hour by addition of 1N sulfuric acid (100 μL/well) and the optical density was read at 450 nm.
Series [6] addresses recombinant galectin-1 (Homo sapiens, UniProt P09382). The experiment in a line: Microtiter plate binding assay with galectin receptor-HRP conjugate, galectin-1. The settings on record: plate coated with recombinant galectin-1.
For series [7], the system named is mouse retinas. In words: Alkali (sodium hydroxide) model, retinal gliosis (GFAP western blot). The settings on record: 10 μl of 50 mM TD139 subconjunctival daily for 14 days; vs PBS.
Experimental: Corneas of murine subjects were contacted with sodium hydroxide. […] Control subjects were injected subconjunctively with PBS control vehicle only. Subjects were sacrificed by ketamine and xylazine on day 14 post surgery. […] Aliquots of retinal protein (30 μg) from lysates, or a control β-actin material were loaded to gels and transferred onto nitrocellulose membranes. Blots were probed overnight at 4° C. with rabbit anti mouse antibody specific for glial fibrillary acidic protein (GFAP; 50,000 dilution; Abcam Inc.; FIG. 18 top row), or with a control antibody specific for β-actin. […] Control blots were probed with rabbit antibody specific for β-actin (FIG. 18 bottom row). The probes were washed and were incubated with goat anti rabbit IRDye 800CW antibody (1:10,000 dilution; LI-Cor Biosciences). Membranes were scanned and quantified using an Odessey imaging system (Li-Cor Biosciences).
C57BJ/6 mice were anesthetized by intraperiteoneal injection of ketamine and xylazine mixture. Corneas were topically anesthetized by application of proparacain eye drop. […]
Subjects were sacrificed on day fourteen after alkalisurgery using a mixture of ketamine and xylazine. […] The membranes were washed and incubated with goat anti rabbit IRDye 800CW antibody (1:10,000; Li-Cor Inc.), the membranes were scanned and quantified with Odessey imaging system (Li-Cor Inc.). […]
For series [8], the system named is endothelial cell (EC) spheroids (HUVEC). In kind it is cell-based. The method, then:
Methyl cellulose powder (6 g) was autoclaved with stirring using a magnetic bar in a 500 mL bottle. The powder was dissolved in 250 mL of DMEM medium at 60° C. with stirring for 30 minutes, and then 250 mL DMEM at room temperature was added and the mixture was stirred for two hours at 4° C. The resulting mixture was then aliquoted into 50 mL cylindrical tubes and centrifuged (6170 revolutions per minute) for two hours at room temperature to remove debris interfering with spheroid formation. The clear supernatant was collected from the centrifuged tubes.
Endothelial cells (EC) were cultured in containers and were detached from the container surfaces with 0.25% trypsin. The pH of the trypsinized EC cells was neutralized with DMEM. Spheroid solution was prepared in tubes by combining 3.75 mL of methylcellulose, 1.75 mL FBS, 17.5 μl pen/strep, and […] endothelial cells, and adding DMEM to bring the total volume to 17.5 mL. The spheroid solution was mixed by inverting tubes, and 150 μl aliquots were added to each well of a 96 well plate using a multichannel pippettor and wide mouth tips. Spheroids were settled and were incubated for 24 hours at 37° C. in 5% CO2.
Each 96 well plate yielded spheroids sufficient for four wells of a 24 well plate. The collagen solution was prepared using 2.3 mL (3.9 mg/mL) collagen type 1, 400 μl 10×M199 medium, 200 μl FBS, and 1.1 mL water. The collagen solution was neutralized with sodium hydroxide using a color pH indicator. The methyl cellulose solution (4.5 mL) was combined with 1.5 mL DMEM and warmed to 37° C. in a water bath. EC spheroids were collected using a wide mouth pipette and centrifuged (700 revolutions per minutes) for three minutes at room temperature.
The resulting supernatant was removed, and two mL of methyl cellulose solution were added to the pellet. Neutralized collagen solution (2 mL) was added to the mixture, and mixed using a pipette carefully to avoid bubble formation.
An aliquot (1 mL) of the mixed collagen solution was added to four wells of a 24 well plate, and the plate was incubated at 37 C 5% CO2 for 30 minutes to polymerize the collagen. […] Control collagen samples were treated with 100 μl of EBM-2 and 25 ng/mL VEGF in EBM-2.
See Meyer et al. 2003 J Biol Chem. 278(18): 16347-55. Representative images of the incubated samples were obtained and the cumulative length in arbitrary units of the endothelial cell sprouts was determined by ImageJ processing and analysis procedures. The data was analyzed by Student's t-test (Table 2).

The subject of series [9] is HUVEC. The experiment in a line: HUVEC viability by calcein AM and WST-1. Type of series: cell-based, human. The settings on record: three hours treatment; TD139 5 μM, Triton X-100 0.1%. The method, then:
The cell viabilities of the treated HUVEC and control HUVEC were determined with each of calcein AM and WST-1, two systems used to determine cell viability. Calcein AM was added to a group of treated HUVEC, which were incubated for 30 minutes (FIG. 14A). Another group of treated HUVEC were incubated for two hours with WST-1, a tetrazolium salt used for determining cell proliferation and is an indicator or cell viability (FIG. 14B). Data are plotted with mean±SEM and analyzed with one-way ANOVA. ***P<0.001 vs control. Fluorescence emission was detected by a spectrophotometer for each treated group contacted with either calcein AM or WST-1.

The test system of series [10] is mouse corneas. The experiment in a line: Silver nitrate cautery-induced corneal neovascularization, TD139. Type of series: in vivo. The settings on record: TD139 325 ng sub-conjunctival every other day, 50 μM eye drops daily; day five after cautery; control about 40%. An excerpt:
FIG. 11A is a drawing of an experimental regimen for drug administration in murine subjects strain C57B/6L. […] Silver nitrate was applied on day zero to cauterize the eyes of the subjects. Mice were sacrificed on day five, and flat mounts of corneas were stained with anti-CD31 to visualize blood vessels. Data shown in FIG. 11 B-C were from subjects treated as described in FIG. 11A.
Neovascularization in the eye was induced in mouse corneas by cauterization using silver nitrate. […] Control subjects were sub-conjunctivally injected with vehicle only (PBS containing 0.5% DMSO only).
After five days of either sub-conjunctival injection treatment or eye drop treatment, subjects were sacrificed, and flat mounts of corneas were excised, photographed, and stained with anti-CD31 to visualize blood vessels (FIG. 11B, magnification is ×100). The density of blood vessels covering the whole cornea was quantified by ImageJ and was analyzed with Student's t test (FIG. 11C).

Series [11] deals with HUVEC spheroids. The experiment in a line: VEGF-A-induced HUVEC spheroid sprouting in type I collagen gels. In kind it is cell-based, human. The settings on record: VEGF-A 100 ng/ml; TD139 0.1, 1, 5 and 10 μM; 24 hours. How it is done:
HUVEC spheroids were prepared and seeded into type I collagen gels. […] Control collagen samples were treated with 100 μl of EBM-2 and 25 ng/mL VEGF in EBM-2. […] After a 24 hour incubation, spheroids were stained with calcein AM dye and photographed by a fluorescent microscope. Cumulative sprout lengths for HUVEC in gels were quantified by ImageJ.
HUVEC spheroids were prepared as described in examples herein, and the spheroids were seeded into type I collagen gels. […] Control spheroids were treated with neither VEGF-A nor TD139. After 24 hours of treatment, spheroids were stained with calcein AM, a cell-permeant dye that indicates cell viability in eukaryotic cells (Invitrogen Inc.), and the spheroids were photographed by a fluorescent microscope. Cumulative sprout lengths were quantified by ImageJ.

Series [12] deals with T1, galectin-1 / VEGFR-2 (Homo sapiens, UniProt P09382).
T1 construct: host or cells: VEGFR-2: endogenous, HUVEC lysate
The experiment in a line: HUVEC lysate VEGFR-2 pull-down on galectin-1 agarose beads. In kind it is binding. The settings on record: 0.1 M saccharide. An excerpt: FIG. 12 is a photomicrograph of a western blot showing that galectin-1 and galectin-3 interacted with VEGFR-2. […] Control samples contained only HUVEC lysates or beads. Bound material was eluted with Laemmli sample buffer, added to 4-20% SDS-PAGE gels, and electrophoresed. Gels were transferred onto membrane blots, which was then probed with anti-VEGFR-2 antibody. VEGFR-2 antibody was observed bound to the HUVEC lysate control and not to the bead only control. […] Thus, the interaction between VEGFR-2 and galectin-1 and galectin-3 was observed herein to be carbohydrate-dependent.
Control HUVEC lysates were incubated with galectin-1 agarose beads or galectin-3 agarose beads only. The beads were rinsed to remove unbound material.
HUVEC lysate material bound to the beads was eluted with the Laemmli sample buffer and was analyzed using gel electrophoresis (4-20% SDS-PAGE gels). Following blocking, membrane blots were probed using anti-VEGFR-2 antibody (FIG. 12). […] Further, the VEGFR2 HUVEC lysate binding to the beads was […] for beads treated with sucrose, a noncompeting saccharide.

For series [13], the target named is T2, galectin-3 / VEGFR-2 (Homo sapiens, UniProt P17931).
T2 construct: host or cells: VEGFR-2: endogenous, HUVEC lysate
In words: HUVEC lysate VEGFR-2 pull-down on galectin-3 agarose beads. The settings on record: 0.1 M saccharide. Type of series: binding.

Values joined by “and” are separate entries in the source; they are usually repeats but may differ in a detail not shown here. Identical values can stand only once. “Also recorded” adds a separate entry of the source.

T1 sequence (P09382 whole entry): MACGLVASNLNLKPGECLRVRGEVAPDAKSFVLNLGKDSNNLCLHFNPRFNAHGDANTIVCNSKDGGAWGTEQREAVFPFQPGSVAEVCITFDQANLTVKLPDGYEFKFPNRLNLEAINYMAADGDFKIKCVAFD
recombinant galectin-3, sequence (P17931 whole entry): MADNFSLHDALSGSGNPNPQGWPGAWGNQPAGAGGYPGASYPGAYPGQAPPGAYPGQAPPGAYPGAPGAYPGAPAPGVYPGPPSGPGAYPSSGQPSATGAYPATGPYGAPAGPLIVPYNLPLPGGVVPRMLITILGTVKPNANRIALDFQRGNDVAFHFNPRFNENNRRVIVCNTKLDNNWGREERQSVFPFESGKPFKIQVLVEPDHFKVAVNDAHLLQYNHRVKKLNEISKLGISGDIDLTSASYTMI
T2 sequence (P17931 whole entry): as above
recombinant galectin-1, sequence (P09382 whole entry): as the sequence (P09382 whole entry) above

Consider `CC(=O)N[C@H]1[C@H]([C@H](O)[C@H](O)CO)O[C@@](O[C@H]2[C@@H](O)[C@@H](CO)O[C@@H](O[C@H]3[C@H](O)[C@@H](NC(C)=O)C(O)O[C@@H]3CO)[C@@H]2O)(C(=O)O)C[C@@H]1O` (stereo partly shown) [NeuAca2-3Galβ1-4GlcNAc], for which the “Spreading of TM cells on galectin-8 protein coated wells” value in series [1] was “inhibited”.

Turning to `CC(=O)N[C@H]1[C@H]([C@H](O)[C@H](O)CO)O[C@](OC[C@H]2O[C@@H](O[C@H]3[C@H](O)[C@@H](NC(C)=O)C(O)O[C@@H]3CO)[C@H](O)[C@@H](O)[C@H]2O)(C(=O)O)C[C@@H]1O` (stereo partly shown) [NeuAca2-6Galβ1-4GlcNAc], the “Spreading of TM cells on galectin-8 protein coated wells” value in [1] is given as “no effect”.

As for `OC[C@H]1O[C@@H](S[C@@H]2O[C@H](CO)[C@H](O)[C@H](n3cc(-c4cccc(F)c4)nn3)[C@H]2O)[C@H](O)[C@@H](n2cc(-c3cccc(F)c3)nn2)[C@H]1O` [TD139, bis-{3-deoxy-3-[4-(3-fluorophenyl)-1H-1,2,3-triazol-1-yl]-β-D-galactopyranosyl}sulfane], the “Corneal opacity (score 0-4)” value in [2] (10 μl of 50 mM TD139 subconjunctival daily for 14 days after alkali) was “area of opacity less than about the site of the pupil; also recorded: reduced corneal opacity”. In series [2] (10 μl of 50 mM TD139 subconjunctival daily for 14 days), the “Reduction of α-SMA (smooth muscle actin) expression in corneal lysates” value is 30%. The “VEGF-A-induced chemotaxis and migration” value in [3] (TD139 1 to 5000 nM, dose-dependent) is reported as “significantly abrogated”. Further, the “Concentration as low as which VEGF-A-induced chemotaxis was significantly abrogated” value in series [3] (VEGF-A 100 ng/mL) was 1 nM. In addition, the “Total protein expression of VEGFR2” value in series [4] was “little or no effect”. For the same compound, the “Binding to galectin-3” value in [5] was “specifically bound”. The “Binding to galectin-1” value in [6] was “specifically bound”. In series [7], the “GFAP expression in retinal lysates” value is reported as “reduced expression of GFAP”. The “Decrease of VEGF-mediated EC sprouting” value in series [8] (10 μM TD139, compared to VEGF alone) is on record as “about one-third”. The “Reduction of the extent of VEGF-mediated sprouting” value in series [8] (50 μM TD139) was “about two-thirds”. In series [9], the “Calcein AM fluorescence (cell viability)” value was “comparable calcein AM fluorescence” and the “WST-1 signal (cell viability)” value is reported as “comparable cell viability”. Besides, the “Density of blood vessels covering the cornea (percent area)” value in series [10] is listed as 28%. Besides, the “VEGF-A-induced sprouting (cumulative sprout length)” value in [11] is “significantly inhibited”.

For `OC[C@H]1O[C@@H](O[C@H]2[C@H](O)[C@@H](O)C(O)O[C@@H]2CO)[C@H](O)[C@@H](O)[C@H]1O` (stereo partly shown) [lactose], the “Inhibition of VEGFR-2 binding to galectin-1 beads” value in series [12] is on record as “inhibited”. In addition, the “Adhesion of TM cells to galectin-8 coated wells” value in series [1] was “inhibited or prevented”.

For `OC[C@H]1O[C@@](CO)(O[C@H]2O[C@H](CO)[C@@H](O)[C@H](O)[C@H]2O)[C@@H](O)[C@@H]1O` [sucrose], the “Inhibition of VEGFR-2 binding to galectin-1 beads” value in series [12] is recorded as “not inhibited”. The “Adhesion of TM cells to galectin-8 coated wells” value in series [1] is given as “not inhibited”. In addition, the “Inhibition of VEGFR-2 binding to galectin-3 beads” value in series [13] is “not inhibited”.

In the case of Triton™ X-100, in series [9], the “Calcein AM fluorescence (cell viability)” value is recorded as “reduced fluorescence” and the “WST-1 signal (cell viability)” value is “reduced WST-1 fluorescence”.

For the compound VEGF, in series [8] (VEGF 25 ng/mL only), the “Fold change in capillary sprouting of EC over control cells not contracted with VEGF and inhibitor” value was 650 fold and 921 fold and 604 fold and 800 fold; the “Formation of endothelial cell sprouts compared to medium only” value is given as “four-fold”.

(Values after patent US20150320782A1, “Methods, compositions and kits for treating, modulating, or preventing ocular angiogenesis or fibrosis in a subject using a galectin protein inhibitor” (TUFTS UNIVERSITY, priority 2012, published 2015).)
